Assay [1] addresses T1, actomyosin (Dd myosin-2 M765-2R with F-actin) (Dictyostelium discoideum, UniProt P08799).
T1 construct: gene mhcA; M765-2R: mhcA 1-765 fused to Dd alpha-actinin repeats (codons 264-505), C-terminal Asp-Ala-Leu-(His)8 tag kept, expressed in D. discoideum AX3-Orf+; in complex with F-actin purified from rabbit skeletal muscle; with Actin, alpha skeletal muscle (Oryctolagus cuniculus)
The assay can be described thus: stopped-flow light scattering, ADP inhibition of ATP-induced actomyosin dissociation. As to conditions: read-out: Dd myosin-2 (M765-2R construct) / WT. It is filed as binding. The source says:
stopped-flow light scattering, ADP inhibition of ATP-induced actomyosin dissociation on actomyosin (Dd myosin-2 M765-2R with F-actin)

The target in assay [2] is T1, actomyosin (Dd myosin-2 M765-2R with F-actin). The assay can be described thus: NADH-coupled actin-activated ATPase assay. Type of assay: biochemical. As to conditions: 20 µM F-actin, 1 mM ATP, 5% DMSO, 25 mM HEPES pH 7.3, 25 mM KCl, 5 mM MgCl2, 25 °C; allosteric.

T1 sequence (P08799 whole entry, looked up, the tested form may be a part): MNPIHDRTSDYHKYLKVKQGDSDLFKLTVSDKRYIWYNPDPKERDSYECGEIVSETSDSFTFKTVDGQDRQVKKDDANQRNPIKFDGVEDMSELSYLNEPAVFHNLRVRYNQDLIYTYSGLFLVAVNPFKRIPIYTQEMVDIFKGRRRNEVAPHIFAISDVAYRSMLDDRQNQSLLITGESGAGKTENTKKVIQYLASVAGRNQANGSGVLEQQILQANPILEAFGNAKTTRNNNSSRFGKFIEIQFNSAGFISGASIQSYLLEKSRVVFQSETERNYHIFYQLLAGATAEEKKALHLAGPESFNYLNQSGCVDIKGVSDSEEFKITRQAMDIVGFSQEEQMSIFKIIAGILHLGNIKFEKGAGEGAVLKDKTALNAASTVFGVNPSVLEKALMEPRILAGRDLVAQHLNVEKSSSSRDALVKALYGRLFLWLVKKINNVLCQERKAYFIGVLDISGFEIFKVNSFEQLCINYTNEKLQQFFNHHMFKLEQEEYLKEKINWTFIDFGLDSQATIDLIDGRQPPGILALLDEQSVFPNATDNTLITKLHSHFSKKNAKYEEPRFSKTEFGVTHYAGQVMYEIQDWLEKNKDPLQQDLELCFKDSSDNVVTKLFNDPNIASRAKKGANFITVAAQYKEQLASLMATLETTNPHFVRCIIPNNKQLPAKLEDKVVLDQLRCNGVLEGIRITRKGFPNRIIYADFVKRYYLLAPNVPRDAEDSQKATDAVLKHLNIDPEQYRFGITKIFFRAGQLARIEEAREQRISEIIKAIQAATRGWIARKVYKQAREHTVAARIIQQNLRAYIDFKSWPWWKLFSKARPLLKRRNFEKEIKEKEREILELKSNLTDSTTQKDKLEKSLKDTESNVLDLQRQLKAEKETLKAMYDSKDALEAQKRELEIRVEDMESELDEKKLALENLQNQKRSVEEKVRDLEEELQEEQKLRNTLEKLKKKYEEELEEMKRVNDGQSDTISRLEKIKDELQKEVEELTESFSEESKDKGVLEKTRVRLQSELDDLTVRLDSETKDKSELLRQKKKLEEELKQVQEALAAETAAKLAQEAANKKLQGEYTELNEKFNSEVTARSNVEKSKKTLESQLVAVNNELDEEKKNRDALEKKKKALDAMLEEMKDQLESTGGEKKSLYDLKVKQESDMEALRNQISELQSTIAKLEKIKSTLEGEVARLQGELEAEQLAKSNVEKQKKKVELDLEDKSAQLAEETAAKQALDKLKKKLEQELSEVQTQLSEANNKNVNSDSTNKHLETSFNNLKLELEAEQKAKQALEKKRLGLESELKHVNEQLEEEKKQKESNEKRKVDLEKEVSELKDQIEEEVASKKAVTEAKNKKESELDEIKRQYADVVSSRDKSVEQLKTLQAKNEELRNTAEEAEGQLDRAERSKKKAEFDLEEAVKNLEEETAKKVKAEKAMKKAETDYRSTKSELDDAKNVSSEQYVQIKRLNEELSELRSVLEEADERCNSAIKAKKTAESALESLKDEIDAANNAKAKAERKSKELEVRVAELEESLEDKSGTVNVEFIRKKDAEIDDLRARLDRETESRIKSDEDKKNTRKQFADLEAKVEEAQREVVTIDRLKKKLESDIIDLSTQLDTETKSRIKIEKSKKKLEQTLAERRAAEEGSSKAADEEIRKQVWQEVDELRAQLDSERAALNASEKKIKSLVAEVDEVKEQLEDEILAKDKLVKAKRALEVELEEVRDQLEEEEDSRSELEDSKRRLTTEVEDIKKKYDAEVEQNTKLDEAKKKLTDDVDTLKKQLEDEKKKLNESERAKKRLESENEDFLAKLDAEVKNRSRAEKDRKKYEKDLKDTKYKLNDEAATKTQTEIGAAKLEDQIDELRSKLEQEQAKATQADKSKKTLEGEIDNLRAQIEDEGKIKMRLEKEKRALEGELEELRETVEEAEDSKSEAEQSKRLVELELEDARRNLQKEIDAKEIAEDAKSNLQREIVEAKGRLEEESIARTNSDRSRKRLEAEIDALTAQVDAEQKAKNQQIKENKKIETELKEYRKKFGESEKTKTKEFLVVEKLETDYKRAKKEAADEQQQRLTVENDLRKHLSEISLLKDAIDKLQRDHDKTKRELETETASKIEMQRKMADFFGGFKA

On to `Nc1ncnc2c1ncn2[C@@H]1O[C@H](COP(=O)(O)OP(=O)(O)O)[C@@H](O)[C@H]1O` [ADP], for which the Kd in assay [1] is 73.3 ± 7 µM.

`Oc1c(Br)cc(Br)cc1-c1[nH]c(Br)c(Br)c1Br` [pentabromopseudilin]: the “n-fold inhibition at 100 μM PBP” value in assay [2] is 7 fold.

The values above are taken from PMC5550493, “The Conserved Lysine-265 Allosterically Modulates Nucleotide- and Actin-binding Site Coupling in Myosin-2” (Scientific Reports, 2017).
